This passage reports inhibition and IC50 results from patent US20160039825A1 (BIOGEN MA INC., priority 2013, published 2016).

Some results are limits rather than exact numbers.

The target in one assay is T1, Human ATX protein (Homo sapiens, UniProt Q13822).
T1 construct: made in house
In words: Autotaxin (ATX) assay, FRET with FS-3 substrate. Format: biochemical. As to conditions: 10 uM compound. In a few lines:
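In-house human ATX (1.0 μg/mL final) was preincubated with compound for 30 min at room temperature in Tris buffer pH 7.4 with NaCl, KCl, CaCl2, MgCl2 and 1 mg/mL fatty acid-free BSA. FS-3 (2 μM final) was added and the plate shaken 2 h at room temperature in the dark. Fluorescence was read at ex 485/em 538 nm.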
As to `O=C(OCc1cc(C(F)(F)F)cc(C(F)(F)F)c1)N1CCn2nc(Br)cc2C1` [Example 407], testing at 10 µM gave an inhibition of 50%.

Still in this assay, the particulars now being: upper bound bins (no greater than 100, 250 or 500 nM); FS-3 2 μM, ATX 1.0 μg/mL.
For `O=C(OCc1cc(C(F)(F)F)cc(C(F)(F)F)c1)N1CCn2nc(C(=O)N3CCNCC3)cc2C1` [Example 435], the IC50 (in general, the concentration that inhibits the measured activity by half) is at most 0.1 µM. On the same count and under the same terms, in the case of `O=C(OCc1cc(C(F)(F)F)cc(C(F)(F)F)c1)N1CCCn2nc(CN3C4CCCC3CCC4)cc2C1` [Example 293] it was at most 0.1 µM.

The compound `NCCNC(=O)c1cc2n(n1)CCN(C(=O)OCc1cc(C(F)(F)F)cc(C(F)(F)F)c1)C2` [Example 425] returned an IC50 of at most 0.1 µM.

`CCOC(=O)c1cc2n(n1)CCCN(C(=O)OCc1cc(Cl)cc(Cl)c1)C2` [Example 1, 5-(3,5-Dichlorobenzyl) 2-ethyl 7,8-dihydro-4H-pyrazolo[1,5-a][1,4]diazepine-2,5(6H)-dicarboxylate] came in with an IC50 of at most 0.5 µM. `Cc1cc2n(n1)CCCN(C(=O)OCc1cc(C(F)(F)F)cc(C(F)(F)F)c1)C2` [Example 124, 3,5-Bis(trifluoromethyl)benzyl 2-methyl-7,8-dihydro-4H-pyrazolo[1,5-a][1,4]diazepine-5(6H)-carboxylate] came in with a half-maximal inhibitory concentration (IC50) of at most 0.1 µM. Still for that read-out and setting: in the case of `CN1CCN(C(=O)c2cc3n(n2)CCCN(C(=O)OCc2cc(Cl)cc(C(F)(F)F)c2)C3)C(C#N)C1` (centres unmarked) [Example 183] it was at most 0.1 µM. Compound `O=C(OCc1cc(C(F)(F)F)cc(C(F)(F)F)c1)N1CCCn2nc(C(=O)N3CCC(F)CC3)cc2C1` [Example 32, 3,5-Bis(trifluoromethyl)benzyl 2-(4-fluoropiperidine-1-carbonyl)-7,8-dihydro-4H-pyrazolo[1,5-a][1,4]diazepine-5(6H)-carboxylate] returned an IC50 of at most 0.1 µM. The same measure, in the same setting: in the case of `N#Cc1cc2n(n1)CCCN(C(=O)OCc1cc(C(F)(F)F)cc(C(F)(F)F)c1)C2` [Example 125, 3,5-Bis(trifluoromethyl)benzyl 2-cyano-7,8-dihydro-4H-pyrazolo[1,5-a][1,4]diazepine-5(6H)-carboxylate] it was at most 0.1 µM. The same measure, in the same setting: then `CC(C)(C)OC(=O)N1C2CCC1CN(C(=O)c1cc3n(n1)CCN(C(=O)OCc1cc(C(F)(F)F)cc(C(F)(F)F)c1)C3)C2` [Example 470], with at most 0.1 µM; and `CCNC(=O)c1cc2n(n1)CCCN(C(=O)OCc1cc(Cl)cc(Cl)c1)C2` [Example 29, 3,5-Dichlorobenzyl 2-(ethylcarbamoyl)-7,8-dihydro-4H-pyrazolo[1,5-a][1,4]diazepine-5(6H)-carboxylate], with at most 0.1 µM. Same read-out and setting: then `O=C(OCc1cc(C(F)(F)F)cc(C(F)(F)F)c1)N1CCCn2nc(C3CC4CCC(C3)N4)cc2C1` (centres unmarked) [Example 377], with at most 0.1 µM; and `O=C(O)C1CNCCN1C(=O)c1cc2n(n1)CCCN(C(=O)OCc1cc(C(F)(F)F)cc(C(F)(F)F)c1)C2` (centres unmarked) [Example 191], with at most 0.1 µM. In the case of `CC1CN(C(=O)OC(C)(C)C)CC(C)N1C(=O)c1cc2n(n1)CCN(C(=O)OCc1cc(C(F)(F)F)cc(C(F)(F)F)c1)C2` (centres unmarked) [Example 476], the 50% inhibitory concentration (IC50) is at most 0.1 µM. Still for that read-out and setting: then `CC(c1cc2n(n1)CCN(C(=O)OCc1cc(C(F)(F)F)cc(C(F)(F)F)c1)C2)N1C2CCC1CN(C(=O)OC(C)(C)C)C2` (centres unmarked) [Example 450], with at most 0.1 µM; and `O=C(OCc1cc(C(F)(F)F)cc(C(F)(F)F)c1)N1CCCn2nc(C3CCCNC3)cc2C1` (centres unmarked) [Example 380], with at most 0.1 µM.

The compound `CC(C)(C)OC(=O)N1CCN(C(=O)c2cc3n(n2)CCN(C(=O)OCc2cc(C(F)(F)F)cc(C(F)(F)F)c2)C3)CC1(C)C` [Example 466] returned a half-inhibitory concentration (IC50) of at most 0.1 µM. The same measure, in the same setting: then `CC(c1cc2n(n1)CCN(C(=O)OCc1cc(C(F)(F)F)cc(C(F)(F)F)c1)C2)N1CC2CCC(C1)N2` (centres unmarked) [Example 427], with at most 0.1 µM; and `O=C(N[C@H]1CC[C@@H](C(=O)O)CC1)c1cc2n(n1)CCCN(C(=O)OCc1cc(Cl)cc(Cl)c1)C2` [Example 85, (cis)-4-(5-(((3,5-Dichlorobenzyl)oxy)carbonyl)-5,6,7,8-tetrahydro-4H-pyrazolo[1,5-a][1,4]diazepine-2-carboxamido)cyclohexanecarboxylic acid], with at most 0.1 µM; and `Cc1cc2n(n1)CCCN(C(=O)OCc1cc(F)cc(C(F)(F)F)c1)C2` [Example 128, 3-Fluoro-5-(trifluoromethyl)benzyl 2-methyl-7,8-dihydro-4H-pyrazolo[1,5-a][1,4]diazepine-5(6H)-carboxylate], with at most 0.25 µM. Still for that read-out and setting: then `NC1CCN(C(=O)c2cc3n(n2)CCCN(C(=O)OCc2cc(Cl)cc(Cl)c2)C3)CC1` [Example 26, 3,5-Dichlorobenzyl 2-(4-aminopiperidine-1-carbonyl)-7,8-dihydro-4H-pyrazolo[1,5-a][1,4]diazepine-5(6H)-carboxylate], with at most 0.1 µM; and `O=C(OCc1cc(C(F)(F)F)cc(C(F)(F)F)c1)N1CCn2nc(C(=O)N3CC4CCC(C3)N4)cc2C1` [Example 437], with at most 0.1 µM.

`O=C(OCc1cc(C(F)(F)F)cc(C(F)(F)F)c1)N1CCCn2nc(NC3CCCCNC3)cc2C1` (centres unmarked) [Example 326] came in with a half-inhibitory concentration (IC50) of at most 0.1 µM. The same measure, in the same setting: then `CC(NC1COC1)c1cc2n(n1)CCCN(C(=O)OCc1cc(C(F)(F)F)cc(C(F)(F)F)c1)C2` (centres unmarked) [Example 509], with at most 0.25 µM. Still for that read-out and setting: then `CN1CC2CN(C(=O)c3cc4n(n3)CCCN(C(=O)OCc3cc(Cl)cc(C(F)(F)F)c3)C4)CC2C1` (centres unmarked) [Example 168], with at most 0.1 µM.

With `CC(C)(C)OC(=O)N1CCN(C(=O)c2cc3n(n2)CCN(C(=O)OCc2cc(C(F)(F)F)cc(C(F)(F)F)c2)C3)CC1` [Example 486], the half-inhibitory concentration (IC50) was at most 0.1 µM.

Consider `O=C(O)c1nn2c(c1F)CN(C(=O)OCc1cc(Cl)cc(C(F)(F)F)c1)CCC2` [Example 399, 5-(((3-chloro-5-(trifluoromethyl)benzyl)oxy)carbonyl)-3-fluoro-5,6,7,8-tetrahydro-4H-pyrazolo[1,5-a][1,4]diazepine-2-carboxylic acid], for which the IC50 is at most 0.1 µM. Same read-out and setting: then `O=C(O)c1cc2n(n1)CCCN(C(=O)COc1cc(C(F)(F)F)cc(C(F)(F)F)c1)C2` [Example 117, 5-(2-(3,5-Bis(trifluoromethyl)phenoxy)acetyl)-5,6,7,8-tetrahydro-4H-pyrazolo[1,5-a][1,4]diazepine-2-carboxylic acid], with at most 0.5 µM. The same measure, in the same setting: then `C[C@@H]1CNC[C@@H](C)N1C(=O)c1cc2n(n1)CCCN(C(=O)OCc1cc(C(F)(F)F)cc(C(F)(F)F)c1)C2` [Example 248], with at most 0.1 µM; and `CN1C2CCC1CN(C(=O)c1cc3n(n1)CCCN(C(=O)OCc1cc(Cl)cc(C(F)(F)F)c1)C3)C2` [Example 201], with at most 0.1 µM. Same read-out and setting: then `CC(C)(C)OC(=O)N1CC2CCC(C1)N2C(=O)c1cc2n(n1)CCN(C(=O)OCc1cc(C(F)(F)F)cc(C(F)(F)F)c1)C2` [Example 474], with at most 0.1 µM; and `O=C(OCc1cc(C(F)(F)F)cc(C(F)(F)F)c1)N1CCCn2nc(C(=O)N3CCNCC34CCCC4)cc2C1` [Example 240], with at most 0.1 µM.

Regarding `CC1CN(c2cc3n(n2)CCCN(C(=O)OCc2cc(C(F)(F)F)cc(C(F)(F)F)c2)C3)CCN1` (centres unmarked) [Example 343], the IC50 was at most 0.1 µM. The same measure, in the same setting: then `O=C(OCc1cc(C(F)(F)F)cc(C(F)(F)F)c1)N1CCn2nc(C(=O)N3CCCCC3)cc2C1` [Example 493], with at most 0.1 µM; and `O=C(OCc1cc(C(F)(F)F)cc(C(F)(F)F)c1)N1CCCn2cncc2C1` [Example 132, 3,5-Bis(trifluoromethyl)benzyl 6,7-dihydro-5H-imidazo[1,5-a][1,4]diazepine-8(9H)-carboxylate], with at most 0.1 µM; and `CC1CN(C(=O)c2cc3n(n2)CCCN(C(=O)OCc2cc(Cl)cc(C(F)(F)F)c2)C3)CCN1` (centres unmarked) [Example 208], with at most 0.1 µM. On the same count and under the same terms, then `O=C(O)C1CC2CCCC(C1)N2C(=O)c1cc2n(n1)CCCN(C(=O)OCc1cccc(C(F)(F)F)c1)C2` (centres unmarked) [Example 58, 9-(5-((3-(Trifluoromethyl)benzyloxy)carbonyl)-5,6,7,8-tetrahydro-4H-pyrazolo[1,5-a][1,4]diazepine-2-carbonyl)-9-aza-bicyclo[3.3.1]nonane-3-carboxylic acid], with at most 0.1 µM. Still for that read-out and setting: then `O=C(OCc1cc(C(F)(F)F)cc(C(F)(F)F)c1)N1CCCn2nc(CN3C4CCCC3CC4)cc2C1` [Example 292], with at most 0.25 µM; and `CC(c1cc2n(n1)CCN(C(=O)OCc1cc(C(F)(F)F)cc(C(F)(F)F)c1)C2)N1C2CCC1CNC2` (centres unmarked) [Example 428], with at most 0.1 µM; and `O=C(OCc1cc(C(F)(F)F)cc(C(F)(F)F)c1)N1CCn2nc(-c3ccncc3)cc2C1` [Example 499], with at most 0.1 µM. `CCCNC(=O)c1cc2n(n1)CCN(C(=O)OCc1cc(C(F)(F)F)cc(C(F)(F)F)c1)C2` [Example 481] registered an IC50 of at most 0.1 µM. On the same count and under the same terms, then `O=C(O)C1CC2CCCC(C1)N2Cc1cc2n(n1)CCCN(C(=O)OCc1cc(C(F)(F)F)cc(C(F)(F)F)c1)C2` (centres unmarked) [Example 297], with at most 0.25 µM; and `O=C(OCc1cc(Cl)cc(C(F)(F)F)c1)N1CCCn2nc(C(=O)N3C4CCC3CNC4)cc2C1` [Example 203], with at most 0.1 µM; and `CN1CC2CCC1CN2C(=O)c1cc2n(n1)CCCN(C(=O)OCc1cc(Cl)cc(C(F)(F)F)c1)C2` (centres unmarked) [Example 159, 3-chloro-5-(trifluoromethyl)benzyl 2-(5-methyl-2,5-diazabicyclo[2.2.2]octane-2-carbonyl)-7,8-dihydro-4H-pyrazolo[1,5-a][1,4]diazepine-5(6H)-carboxylate], with at most 0.1 µM. The same measure, in the same setting: in the case of `CNC1CCN(C(=O)c2cc3n(n2)CCCN(C(=O)OCc2cc(C(F)(F)F)cc(C(F)(F)F)c2)C3)C1` (centres unmarked) [Example 243] it was at most 0.1 µM; in that of `CN1CCN(C(=O)c2cc3n(n2)CCCN(C(=O)OCc2cc(Cl)cc(C(F)(F)F)c2)C3)C2(CCCC2)C1` [Example 232], at most 0.1 µM. The same measure, in the same setting: then `CC(c1cc2n(n1)CCN(C(=O)OCc1cc(C(F)(F)F)cc(C(F)(F)F)c1)C2)N1CCC(C(=O)O)CC1` (centres unmarked) [Example 456], with at most 0.25 µM.
